Reference: patent US9187458B2, “Cyanoquinoline derivatives” (Tianjin Hemay Bio-Tech Co., LTD., priority 2010, dated 2015)

Legend:
A431 cells = assay: A431 Cell Growth Inhibition Test (MTT Assay); assay type: cell-based, human; details: Homo sapiens, A-431, 68 h, compound 1 μM, 68 h incubation, read-out: Growth Inhibition Ratio (%)
Description: A431 Cell Growth Inhibition Test (MTT Assay)
1. Cell strains: A431 (human epithelial […] cell strains);
Culture medium: 45% DMEM, 45% F12+10% FBS;
1. A plate (10 cm) of cells in logarithmic growth phase normally cultured was collected;
2. The culture solution was sucked out. The plate was washed with 5 ml of PBS 1-2 times;
3. PBS was sucked out, and 2 ml of 0.25% pancreatin was added to infiltrate the cells for 1 min;
4. The pancreatin was sucked out, and the culture plate was placed in an incubator. Digestion was carried out for about 15 min at 37° C.;
5. 4 ml of complete culture solution was added in the culture plate to stop the digestion. The cells were carefully scoured with micropipette (1 ml) to give a uniform cell suspension. The suspension was implanted into a 96-well cell culture plate by 2500 cells/100 μl per well. The culture plate was incubated overnight under 5% CO2 at 37° C. In day 2, 100 μl of culture solution comprising the compound was added in each well, and further incubated for 68 h under 5% CO2 at 37° C.
6. The culture solution was sucked out;
7. 100 μl of serum-free culture solution containing 0.5 mg/ml MTT was added in each well, and incubated for 4 h;
8. The culture solution was carefully sucked out;
9. 100 μl of DMSO was added into each well and vibrated to dissolve;
10. OD values were determined at 490 nM.
(§1) 1. Calculation of Relative Inhibition Ratio The inhibition ratio of a compound on cell growth=(PC−n)/(PC−NC)×100%
IC50: concentration of a compound where inhibition ratio was 50%. IC50 values were fitted with Origin7.5.

BT-474 cells = assay: BT-474 Cell Growth Inhibition Test (SRB Assay); assay type: cell-based, human; details: 70 h incubation; for IC50 / inhibition at 1 µM: Homo sapiens; for inhibition at 1 µM: BT-474, 70 h, read-out: Growth Inhibition Ratio (%); for inhibition at 1 µM / Growth Inhibition Ratio (%): compound 1 μM
Description: BT-474 Cell Growth Inhibition Test (SRB Assay)
1. Cell strains: BT-474 (human breast tumor cell strains);
2. SRB: available from Sigmaaldrich, goods number: S9012, lot number: 047K3751. SRB was reserved at the room temperature. 0.4% (w/v) of working solution was formulated with 1% of glacial acetic acid. The solution was reserved at the temperature of 4° C.; anti-tumor compounds; DMSO.
Culture medium (90% EMEM+10% FBS+0.1 mM NEAA, reserved at 4° C.);
1. A plate (10 cm) of cells in logarithmic growth phase normally cultured was collected. The culture solution was sucked out. The plate was washed with 5 mL of PBS 1-2 times;
2. PBS was sucked out, and […] of 0.25% pancreatin was added to infiltrate the cells for 30 s;
3. The pancreatin was sucked out. The culture plate was pleaced in an incubator. Digestion was carried out for about 5 min at 37° C.;
4. 3 mL of complete culture solution was added to the culture plate to stop the digestion. The cells were carefully scoured with micropipette (1 ml) to give a uniform single cell suspension;
5. Cell suspension was counted. The suspension was diluted to 1×10^5/ml. The resulting suspension was developed uniformly on a plate. The plate was incubated under 5% CO2 at 37° C. overnight. In day 2, 80 μL of complete culture medium was added in each well and then 20 μL of culture solution comprising a compound was added. The mixture was incubated for 70 h under 5% CO2 at 37° C.
6. The culture solution was sucked out. 100 uL of TCA fixed cells which were diluted to 10% were added to each well. The plate was kept in a refrigerator for 1 h at 4° C.
7. TCA stationary liquid was sucked out. Each well was washed with 150 μL of ddH2O five times;
8. After the stationary liquid was cleansed, the plate was dried in the air at the room temperature;
9. 60 μL of SRB staining solution was added in each well. The well was stained for 15 min at the room temperature;
10. The SRB staining solution was sucked out. Each well was washed with 150 μL of 1% glacial acetic acid five times;
11. After the SRB staining solution was cleansed, the plate was dried in the air at the room temperature;
12. 100 μL of 10 mM Tris was added in each well. The plate was vibrated to dissolve out SRB;
13. OD values were determined at 570 nM.
as §1
IC50: Concentration of a compound where inhibition ratio was 50%. IC50 values were fitted with Origin7.5.

| Structure (SMILES) | inhibition at 1 µM (BT-474 cells) [%] | also measured |
| --- | --- | --- |
| C#Cc1cccc(Nc2c(C#N)cnc3cc(O[C@H]4CCOC4)c(NC(=O)/C=C/CN(C)CCO)cc23)c1 [Example 190, (S,E)-N-(3-CYANO-4-(3-ETHYNYLPHENYLAMINO)-7-(TETRAHYDROFURAN-3-YL-OXY)QUINOLIN-6-YL)-4-(N-METHYLETHANOLAMINO)-BUT-2-ENAMIDE] | – | inhibition at 1 µM (A431 cells): 79%; IC50 (BT-474 cells): 267 nM |
| CCN(CC)C/C=C/C(=O)Nc1cc2c(Nc3ccc(F)c(Cl)c3)c(C#N)cnc2cc1O[C@H]1CCOC1 [Example 168, (S,E)-N-(4-(3-CHLORO-4-FLUOROPHENYLAMINO)-3-CYANO-7-(TETRAHYDROFURAN-3-YL-OXY)QUINOLIN-6-YL)-4-(DIETHYLAMINO)-BUT-2-ENAMIDE] | 86 | – |
| N#Cc1cnc2cc(O[C@H]3CCOC3)c(NC(=O)/C=C/CN(CCO)CCO)cc2c1Nc1ccc(F)c(Cl)c1 [Example 192, (S,E)-N-(3-CYANO-4-(3-CHLORO-4-FLUORO-PHENYLAMINO)-7-(TETRAHYDROFURAN-3-YL-OXY)QUINOLIN-6-YL)-4-(DIETHANOLAMINO)-BUT-2-ENAMIDE] | 85 | – |
| N#Cc1cnc2cc(O[C@H]3CCOC3)c(NC(=O)/C=C/CNCCCCCCO)cc2c1Nc1ccc(F)c(Cl)c1 [Example 205, (S,E)-N-(3-CYANO-4-(3-CHLORO-4-FLUORO-PHENYLAMINO)-7-(TETRAHYDROFURAN-3-YL-OXY)QUINOLIN-6-YL)-4-(6-HYDROXYHEXYLAMINO)-BUT-2-ENAMIDE] | 75 | – |
| CCN(CC)C/C=C/C(=O)Nc1cc2c(Nc3ccc(OCc4cccc(F)c4)c(Cl)c3)c(C#N)cnc2cc1O[C@H]1CCOC1 [Example 171, (S,E)-N-(4-(4-(3-FLUOROBENZYLOXY)-3-CHLOROPHENYLAMINO)-3-CYANO-7-(TETRAHYDROFURAN-3-YL-OXY)QUINOLIN-6-YL)-4-(DIETHYLAMINO)-BUT-2-ENAMIDE] | 84 | – |
| CN(C)C/C=C/C(=O)Nc1cc2c(Nc3ccc(OCc4ccccc4)cc3)c(C#N)cnc2cc1O[C@H]1CCOC1 [Example 155, (S,E)-N-(4-(4-(BENZYLOXY)PHENYLAMINO)-3-CYANO-7-(TETRAHYDROFURAN-3-YL-OXY)QUINOLIN-6-YL)-4-(DIMETHYLAMINO)-BUT-2-ENAMIDE] | – | inhibition at 1 µM (A431 cells): 82% |
| N#Cc1cnc2cc(O[C@H]3CCOC3)c(NC(=O)/C=C/CN3CCCCC3)cc2c1Nc1ccc(F)c(Cl)c1 [Example 169, (S,E)-N-(4-(3-CHLORO-4-FLUOROPHENYLAMINO)-3-CYANO-7-(TETRAHYDROFURAN-3-YL-OXY)QUINOLIN-6-YL)-4-(PIPERIDIN-1-YL)-BUT-2-ENAMIDE] | 80 | – |
| CN(C)C/C=C/C(=O)Nc1cc2c(Nc3cccc(Br)c3)c(C#N)cnc2cc1O[C@H]1CCOC1 [Example 156, (S,E)-N-(4-(3-BROMOPHENYLAMINO)-3-CYANO-7-(TETRAHYDROFURAN-3-YL-OXY)QUINOLIN-6-YL)-4-(DIMETHYLAMINO)-BUT-2-ENAMIDE] | 70 | – |
| COCCN(C/C=C/C(=O)Nc1cc2c(Nc3ccc(OCc4ccccn4)c(Cl)c3)c(C#N)cnc2cc1O[C@H]1CCOC1)CCOC [Example 203] | 82 | – |
| CN(C)C/C=C/C(=O)Nc1cc2c(Nc3ccc(OCc4ccccc4F)c(Cl)c3)c(C#N)cnc2cc1O[C@H]1CCOC1 [Example 157, (S,E)-N-(4-(4-(2-FLUOROBENZYLOXY)-3-CHLOROPHENYLAMINO)-3-CYANO-7-(TETRAHYDROFURAN-3-YL-OXY)QUINOLIN-6-YL)-4-(DIMETHYLAMINO)-BUT-2-ENAMIDE] | – | inhibition at 1 µM (A431 cells): 72% |
| N#Cc1cnc2cc(O[C@H]3CCOC3)c(NC(=O)/C=C/CN3CCOCC3)cc2c1Nc1ccc(OCc2ccccn2)c(Cl)c1 [Example 186, (S,E/Z)-N-(4-(3-CHLORO-4-(PYRIDIN-2-YL-METHOXY)PHENYLAMINO)-3-CYANO-7-(TETRAHYDROFURAN-3-YL-OXY)QUINOLIN-6-YL)-4-(MORPHOLIN-4-YL)-BUT-2-ENAMIDE] | – | Growth Inhibition Ratio (%) (BT-474 cells): 80% |
| CCN(CC)C/C=C/C(=O)Nc1cc2c(Nc3ccc(OCc4ccccn4)c(Cl)c3)c(C#N)cnc2cc1O[C@H]1CCOC1 [Example 184, (S,E/Z)-N-(4-(3-CHLORO-4-(PYRIDIN-2-YL-METHOXY)PHENYLAMINO)-3-CYANO-7-(TETRAHYDROFURAN-3-YL-OXY)QUINOLIN-6-YL)-4-(DIETHYLAMINO)-BUT-2-ENAMIDE] | – | Growth Inhibition Ratio (%) (BT-474 cells): 83% |
| CN(C/C=C/C(=O)Nc1cc2c(Nc3ccc(OCc4cccc(F)c4)c(Cl)c3)c(C#N)cnc2cc1O[C@H]1CCOC1)CCO [Example 198, (S,E)-N-(3-CYANO-4-(4-(3-FLUOROBENZYLOXY)-3-CHLOROPHENYLAMINO)-7-(TETRAHYDROFURAN-3-YL-OXY)QUINOLIN-6-YL)-4-(N-METHYLETHANOLAMINO)-BUT-2-ENAMIDE] | 78 | – |
| COCCN(C)C/C=C/C(=O)Nc1cc2c(Nc3ccc(OCc4ccccn4)c(Cl)c3)c(C#N)cnc2cc1O[C@H]1CCOC1 [Example 201, (S,E)-N-(3-CYANO-4-(3-CHLORO-4-(PYRIDIN-2-YL-METHOXY)PHENYLAMINO)-7-(TETRAHYDROFURAN-3-YL-OXY)QUINOLIN-6-YL)-4-(N-METHYLMETHOXY ETHYLAMINO)-BUT-2-ENAMIDE] | 80 | – |
| N#Cc1cnc2cc(O[C@H]3CCOC3)c(NC(=O)/C=C/CN3CCCCC3)cc2c1Nc1ccc(OCc2cccc(F)c2)c(Cl)c1 [Example 172, (S,E)-N-(4-(4-(3-FLUOROBENZYLOXY)-3-CHLOROPHENYLAMINO)-3-CYANO-7-(TETRAHYDROFURAN-3-YL-OXY)QUINOLIN-6-YL)-4-(PIPERIDIN-1-YL)-BUT-2-ENAMIDE] | 62 | – |
| N#Cc1cnc2cc(O[C@H]3CCOC3)c(NC(=O)/C=C/CN3CCCCC3)cc2c1Nc1ccc(OCc2ccccn2)c(Cl)c1 [Example 185, (S,E/Z)-N-(4-(3-CHLORO-4-(PYRIDIN-2-YL-METHOXY)PHENYLAMINO)-3-CYANO-7-(TETRAHYDROFURAN-3-YL-OXY)QUINOLIN-6-YL)-4-(PIPERIDIN-1-YL)-BUT-2-ENAMIDE] | – | inhibition at 1 µM (A431 cells): 70% |
| CN(C)C/C=C/C(=O)Nc1cc2c(Nc3ccc(OCc4ccccc4C#N)c(Cl)c3)c(C#N)cnc2cc1O[C@H]1CCOC1 [Example 162, (S,E)-N-(4-(4-(2-CYANOBENZYLOXY)-3-CHLOROPHENYLAMINO)-3-CYANO-7-(TETRAHYDROFURAN-3-YL-OXY)QUINOLIN-6-YL)-4-(DIMETHYLAMINO)-BUT-2-ENAMIDE] | 80 | – |
| C#Cc1cccc(Nc2c(C#N)cnc3cc(O[C@H]4CCOC4)c(NC(=O)/C=C/CNCc4ccccc4)cc23)c1 [Example 147, (S,E)-N-(3-CYANO-4-(3-ETHYNYLPHENYLAMINO)-7-(TETRAHYDROFURAN-3-YL-OXY)QUINOLIN-6-YL)-4-(BENZYLAMINO)-BUT-2-ENAMIDE] | 75 | – |
| N#Cc1cnc2cc(O[C@H]3CCOC3)c(NC(=O)/C=C/CN3CCOCC3)cc2c1Nc1ccc(OCc2cccc(F)c2)c(Cl)c1 [Example 173, (S,E)-N-(4-(4-(3-FLUOROBENZYLOXY)-3-CHLOROPHENYLAMINO)-3-CYANO-7-(TETRAHYDROFURAN-3-YL-OXY)QUINOLIN-6-YL)-4-(MORPHOLIN-4-YL)-BUT-2-ENAMIDE] | 67 | – |
| C#Cc1cccc(Nc2c(C#N)cnc3cc(O[C@H]4CCOC4)c(NC(=O)/C=C/CN(CCOC)CCOC)cc23)c1 [Example 191, (S,E)-N-(3-CYANO-4-(3-ETHYNYLPHENYLAMINO)-7-(TETRAHYDROFURAN-3-YL-OXY)QUINOLIN-6-YL)-4-(DIMETHOXYETHYLAMINO)-BUT-2-ENAMIDE] | – | IC50 (BT-474 cells): 390 nM |
